Source: ChEMBL document CHEMBL1146948, “Synthesis and biological activity of diaryl ether inhibitors of malarial enoyl acyl carrier protein reductase. Part 2: 2'-substituted triclosan derivatives” (Bioorg Med Chem Lett, 2006)

Columns and labels:
Plasmodium falciparum [1] = experiment: Antimalarial activity against Plasmodium falciparum Dd2; assay type: functional, organism-based
Plasmodium falciparum [2] = experiment: Antimalarial activity against Plasmodium falciparum 3D7; assay type: functional, organism-based
[3] = biological target: T1, Enoyl-acyl-carrier protein reductase (Plasmodium falciparum, UniProt Q965D5); experiment: Inhibition of Plasmodium falciparum ENR enzymatic activity
T1 sequence (Q965D5 whole entry): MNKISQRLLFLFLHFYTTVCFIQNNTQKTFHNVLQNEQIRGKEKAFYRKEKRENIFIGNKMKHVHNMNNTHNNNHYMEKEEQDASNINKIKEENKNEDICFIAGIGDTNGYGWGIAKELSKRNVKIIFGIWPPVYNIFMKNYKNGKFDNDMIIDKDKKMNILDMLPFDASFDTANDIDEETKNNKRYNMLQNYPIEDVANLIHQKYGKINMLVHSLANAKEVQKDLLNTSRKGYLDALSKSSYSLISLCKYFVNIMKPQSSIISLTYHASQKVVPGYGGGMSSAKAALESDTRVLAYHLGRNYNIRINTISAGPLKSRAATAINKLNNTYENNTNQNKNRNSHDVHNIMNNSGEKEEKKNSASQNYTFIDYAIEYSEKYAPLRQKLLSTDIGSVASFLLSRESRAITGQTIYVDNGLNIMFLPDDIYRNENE

SMILES	EC50 (Plasmodium falciparum [1])	EC50 (Plasmodium falciparum [2])	IC50 [3]
Oc1cc(Cl)ccc1Oc1ccc(Cl)cc1CNCc1ccccc1	0.83 µM	0.77 µM	3.3 µM
Oc1cc(Cl)ccc1Oc1ccccc1CNCc1ccc(Cl)cc1	0.3 µM	0.33 µM	35 µM
CN(Cc1ccc(Cl)cc1)C(C)(C)c1cc(Cl)ccc1Oc1ccc(Cl)cc1O	0.38 µM	0.14 µM	27 µM
Oc1cc(Cl)ccc1Oc1ccccc1CNCCc1ccccc1	0.75 µM	0.78 µM	2.5 µM
Oc1cc(Cl)ccc1Oc1ccccc1CNCCCc1ccccc1	0.39 µM	0.32 µM	19 µM
Oc1cc(Cl)ccc1Oc1ccc(Cl)cc1CNc1ccc2ccccc2c1	0.14 µM	0.21 µM	26 µM
Oc1cc(Cl)ccc1Oc1ccc(Cl)cc1CNCc1ccc(-c2ccccc2)cc1	0.15 µM	0.23 µM	35 µM
CC(=O)N(Cc1ccc(Cl)cc1)Cc1cc(Cl)ccc1Oc1ccc(Cl)cc1O	5.9 µM	3.5 µM	28 µM
Oc1cc(Cl)ccc1Oc1ccccc1CNc1cccc2ccccc12	0.37 µM	0.3 µM	11 µM
CN(Cc1ccc(Cl)cc1)Cc1cc(Cl)ccc1Oc1ccc(Cl)cc1O	0.19 µM	0.25 µM	22 µM
Oc1cc(Cl)ccc1Oc1ccccc1CNc1ccc2ccccc2c1	0.33 µM	0.45 µM	46 µM
O=S(=O)(NCc1cc(Cl)ccc1Oc1ccc(Cl)cc1O)c1ccccc1	17 µM	11 µM	15 µM
Oc1cc(Cl)ccc1Oc1ccccc1CNCc1ccccc1	0.42 µM	0.49 µM	10 µM
Oc1cc(Cl)ccc1Oc1ccc(Cl)cc1CN1CCCCC1	0.48 µM	0.73 µM	> 50 µM
NCc1ccccc1Oc1ccc(Cl)cc1O	7.2 µM	9.7 µM	> 50 µM
COc1cc(Cl)ccc1Oc1ccccc1CNCc1ccc(Cl)cc1	24 µM	19 µM	> 50 µM
Oc1cc(Cl)ccc1Oc1ccc(Cl)cc1CN1CCCC1	0.45 µM	0.5 µM	> 50 µM
Oc1cc(Cl)ccc1Oc1ccc(Cl)cc1CN1CCN(c2ccccc2)CC1	15 µM	14 µM	6.1 µM
Nc1ccccc1Oc1ccc(Cl)cc1O	140 µM	83 µM	7 µM
O=C(NCc1cc(Cl)ccc1Oc1ccc(Cl)cc1O)c1ccccc1	12 µM	8.6 µM	18 µM
NCc1cc(Cl)ccc1Oc1ccc(Cl)cc1O	2 µM	2.7 µM	> 50 µM
Oc1cc(Cl)ccc1Oc1ccc(Cl)cc1CN1CCN(C(c2ccccc2)c2ccccc2)CC1	1.4 µM	2.1 µM	> 50 µM
Oc1cc(Cl)ccc1Oc1ccc(Cl)cc1CN1CCN(Cc2ccccc2)CC1	0.62 µM	0.63 µM	11 µM
CN(C)Cc1cc(Cl)ccc1Oc1ccc(Cl)cc1O	0.22 µM	0.18 µM	19 µM
CC(C)(NCc1ccc(Cl)cc1)c1cc(Cl)ccc1Oc1ccc(Cl)cc1O	0.35 µM	0.41 µM	7.2 µM
Oc1cc(Cl)ccc1Oc1ccc(Cl)cc1CNCc1ccc(Cl)cc1	0.27 µM	0.32 µM	7.2 µM
CNCc1cc(Cl)ccc1Oc1ccc(Cl)cc1O	0.47 µM	0.58 µM	27 µM
Oc1cc(Cl)ccc1Oc1ccc(Cl)cc1CNCc1ccc2c(c1)CCO2	0.11 µM	0.18 µM	9 µM
Oc1cc(Cl)ccc1Oc1ccc(Cl)cc1CNc1cccc2ccccc12	2.2 µM	2.6 µM	> 50 µM
